Measurements taken from US11708348B2, “Protease inhibitors for treatment of coronavirus infections” (The Scripps Research Institute, priority 2021, dated 2023).
Like-named read-outs stand apart in the source and are kept apart here.

Tested on: SARS-CoV-2 strain USA-WA1/2020
Assay: microbe, parasite or virus in culture
Format: cell-based
Conditions: Severe acute respiratory syndrome coronavirus 2, HeLa-ACE2, 24 h, read-out: EC50, uM (Hela)
[1] = HeLa-ACE2 cells, SARS-CoV-2 infection, 24 h, class symbols
[2] = HeLa-ACE2 cells, SARS-CoV-2 infection, 24 h

Structure (SMILES)	EC50 [1] [µM]	EC50 [2] [µM]	also measured
CC(C)C[C@H](NC(=O)c1cc(-c2ccccc2F)on1)C(=O)N[C@@H](C[C@@H]1CCNC1=O)C(=O)COc1c(F)c(F)cc(F)c1F [Compound 67, 5-(2-fluorophenyl)-N-((S)-4-methyl-1-oxo-1-(((S)-3-oxo-1-((S)-2-oxopyrrolidin-3-yl)-4-(2,3,5,6-tetrafluorophenoxy)butan-2-yl)amino)pentan-2-yl)isoxazole-3-carboxamide]	0.2 to 0.5		
O=C1NCC[C@H]1C[C@H](NC(=O)[C@@H]1CC2(CC2)CN1C(=O)C(F)F)C(=O)COC(F)(F)F [Compound 635, (S)-5-(2,2-difluoroacetyl)-N-((S)-3-oxo-1-((S)-2-oxopyrrolidin-3-yl)-4-(trifluoromethoxy)butan-2-yl)-5-azaspiro[2.4]heptane-6-carboxamide]			EC50: 0.05 to 0.2 µM
CC(C)C[C@H](NC(=O)C(=O)Nc1ccccc1Br)C(=O)N[C@@H](C[C@@H]1CCNC1=O)C(=O)COc1c(F)c(F)cc(F)c1F [Compound 56, N1-(2-bromophenyl)-N2-((S)-4-methyl-1-oxo-1-(((S)-3-oxo-1-((S)-2-oxopyrrolidin-3-yl)-4-(2,3,5,6-tetrafluorophenoxy)butan-2-yl)amino)pentan-2-yl)oxalamide]	0.05 to 0.2		
CO[C@H](CC(C)C)C(=O)N1CC2(CC2)C[C@H]1C(=O)N[C@@H](C[C@@H]1CCNC1=O)C(=O)COC(F)(F)F [Compound 381, (S)-5-((R)-2-methoxy-4-methylpentanoyl)-N-((S)-3-oxo-1-((S)-2-oxopyrrolidin-3-yl)-4-(trifluoromethoxy)butan-2-yl)-5-azaspiro[2.4]heptane-6-carboxamide]	< 0.05		
CC(C)(C)C[C@H](NC(=O)c1cc2cc(F)ccc2[nH]1)C(=O)N[C@@H](C[C@@H]1CCNC1=O)C(=O)COc1c(F)c(F)cc(F)c1F [Compound 13, N-((S)-4,4-dimethyl-1-oxo-1-(((S)-3-oxo-1-((S)-2-oxopyrrolidin-3-yl)-4-(2,3,5,6-tetrafluorophenoxy)butan-2-yl)amino)pentan-2-yl)-5-fluoro-1H-indole-2-carboxamide]	0.5 to 1		
O=C(Nc1ccccc1)C(=O)N[C@@H](CC1CCC1)C(=O)N[C@@H](C[C@@H]1CCNC1=O)C(=O)COc1c(F)c(F)cc(F)c1F [Compound 31, N1-((S)-3-cyclobutyl-1-oxo-1-(((S)-3-oxo-1-((S)-2-oxopyrrolidin-3-yl)-4-(2,3,5,6-tetra-fluorophenoxy)butan-2-yl)amino)propan-2-yl)-N2-phenyloxalamide]	< 0.05		
CC(C)C[C@H](NC(=O)C(=O)Nc1cc(F)c(Br)c(F)c1)C(=O)N[C@@H](C[C@@H]1CCNC1=O)C(=O)COc1c(F)c(F)cc(F)c1F [Compound 87, N1-(4-bromo-3,5-difluorophenyl)-N2-((S)-4-methyl-1-oxo-1-(((S)-3-oxo-1-((S)-2-oxopyrrolidin-3-yl)-4-(2,3,5,6-tetrafluorophenoxy)butan-2-yl)amino)pentan-2-yl)oxalamide]	0.05 to 0.2		
CC(C)OCC(=O)N1CC2(CC2)C[C@H]1C(=O)N[C@@H](C[C@@H]1CCNC1=O)C(=O)COC(F)(F)F [Compound 647, (888S)-5-(2-isopropoxyacetyl)-N-((S)-3-oxo-1-((S)-2-oxopyrrolidin-3-yl)-4-(trifluoromethoxy)butan-2-yl)-5-azaspiro[2.4]heptane-6-carboxamide]		0.05 to 0.2	
Cc1ccccc1NC(=O)C(=O)N[C@@H](CC1CCCCC1)C(=O)N[C@@H](C[C@@H]1CCNC1=O)C(=O)COc1c(F)c(F)cc(F)c1F [Compound 93, N1-((S)-3-cyclohexyl-1-oxo-1-(((S)-3-oxo-1-((S)-2-oxopyrrolidin-3-yl)-4-(2,3,5,6-tetrafluorophenoxy)butan-2-yl)amino)propan-2-yl)-N2-(o-tolyl)oxalamide]	< 0.05		
O=C(Nc1cccc(OC(F)(F)F)c1F)C(=O)N1CC2(CC2)C[C@H]1C(=O)N[C@@H](C[C@@H]1CCNC1=O)C(=O)COC(F)(F)F [Compound 600, (S)-5-(2-((2-fluoro-3-(trifluoromethoxy)-phenyl)amino)-2-oxoacetyl)-N-((S)-3-oxo-1-((S)-2-oxopyrrolidin-3-yl)-4-(trifluoromethoxy)-butan-2-yl)-5-azaspiro[2.4]heptane-6-carboxamide]		< 0.05	
O=C1NCC[C@H]1C[C@H](NC(=O)[C@@H]1CC2(CC2)CN1C(=O)[C@H](O)C(F)(F)F)C(=O)COC(F)(F)F [Compound 385, (S)-N-((S)-3-oxo-1-((S)-2-oxopyrrolidin-3-yl)-4-(trifluoromethoxy)butan-2-yl)-5-((S)-3,3,3-trifluoro-2-hydroxypropanoyl)-5-azaspiro[2.4]heptane-6-carboxamide]	0.05 to 0.2		
O=C(NCC(F)(F)F)C(=O)N1CC2(CC2)C[C@H]1C(=O)N[C@@H](C[C@@H]1CCNC1=O)C(=O)COC(F)(F)F [Compound 570]		0.05 to 0.2	
CC1(NC(=O)C(=O)N2C[C@H]3[C@@H]([C@H]2C(=O)N[C@@H](C[C@@H]2CCNC2=O)C(=O)COC(F)(F)F)C3(C)C)CC1 [Compound 469, (1R,2S,5S)-6,6-dimethyl-3-(2-((l-methylcyclopropyl)-amino)-2-oxoacetyl)-N-((S)-3-oxo-1-((S)-2-oxopyrrolidin-3-yl)-4-(trifluoromethoxy)butan-2-yl)-3-azabicyclo[3.1.0]-hexane-2-carboxamide]		0.05 to 0.2	
CC(C)C[C@@H](OC(=O)Cc1ccccc1)C(=O)N1CC2(CC2)C[C@H]1C(=O)N[C@@H](C[C@@H]1CCNC1=O)C(=O)COC(F)(F)F [Compound 632, (R)-4-methyl-1-oxo-1-((S)-6-(((S)-3-oxo-l-((S)-2-oxopyrrolidin-3-yl)-4-(trifluoromethoxy)butan-2-yl)carbamoyl)-5-azaspiro[2.4]heptan-5-yl)pentan-2-yl 2-phenylacetate]			EC50: < 0.05 µM
COc1cccc(NC(=O)C(=O)N[C@@H](CC(C)C)C(=O)N[C@@H](C[C@@H]2CCNC2=O)C(=O)COC(F)(F)F)c1 [Compound 188, N1-(3-methoxyphenyl)-N2-((S)-4-methyl-1-oxo-1-(((S)-3-oxo-1-((S)-2-oxopyrrolidin-3-yl)-4-(trifluoromethoxy)butan-2-yl)amino)pentan-2-yl)oxalamide]	< 0.05		
O=C1NCC[C@H]1C[C@H](NC(=O)[C@@H]1CC2(CC2)CN1C(=O)[C@H](O)CC(F)F)C(=O)COC(F)(F)F [Compound 450, (S)-5-((R)-4,4-difluoro-2-hydroxybutanoyl)-N-((S)-3-oxo-1-((S)-2-oxopyrrolidin-3-yl)-4-(trifluoromethoxy)butan-2-yl)-5-azaspiro[2.4]heptane-6-carboxamide]		0.05 to 0.2	
O=C(N[C@@H](C[C@@H]1CCNC1=O)C(=O)COC(F)(F)F)C1[C@H]2CCC[C@H]2CN1C(=O)[C@H]1CCCO1 (stereo partly drawn) [Compound 299, (1S,3aR,6aS)-N-((S)-3-oxo-1-((S)-2-oxopyrrolidin-3-yl)-4-(trifluoromethoxy)butan-2-yl)-2-((R)-tetrahydrofuran-2-carbonyl)octahydro-cyclopenta[c]pyrrole-l-carboxamide]	0.05 to 0.2		
O=C1NCC[C@H]1C[C@H](NC(=O)[C@@H]1CC2(CC2)CN1C(=O)C1(NC(=O)C(F)(F)F)CCC(F)(F)CC1)C(=O)COC(F)(F)F [Compound 680, (S)-5-(4,4-difluoro-1-(2,2,2-trifluoroacetamido)cyclohexane-1-carbonyl)-N-((S)-3-oxo-1-((S)-2-oxopyrrolidin-3-yl)-4-(trifluoromethoxy)butan-2-yl)-5-azaspiro[2.4]heptane-6-carboxamide]			EC50: 0.2 to 0.5 µM
CC(C)C[C@@H](N)C(=O)N1CC2(CC2)C[C@H]1C(=O)N[C@@H](C[C@@H]1CCNC1=O)C(=O)COC(F)(F)F [Compound 644, (S)-5-(D-leucyl)-N-((S)-3-oxo-1-((S)-2-oxopyrrolidin-3-yl)-4-(trifluoromethoxy)butan-2-yl)-5-azaspiro[2.4]heptane-6-carboxamide]		0.2 to 0.5	
CC1(C[C@H](NC(=O)C(=O)NC23CC(F)(C2)C3)C(=O)N[C@@H](C[C@@H]2CCNC2=O)C(=O)COC(F)(F)F)CCC1 [Compound 573, N1-(3-fluorobicyclo[1.1.1]pentan-1-yl)-N2-((S)-3-(1-methylcyclobutyl)-1-oxo-1-(((S)-3-oxo-1-((S)-2-oxopyrrolidin-3-yl)-4-(trifluoromethoxy)butan-2-yl)amino)propan-2-yl)oxalamide]		< 0.05	
CC(C)(C)C[C@H](NC(=O)c1cnc(C(F)(F)F)s1)C(=O)N[C@@H](C[C@@H]1CCNC1=O)C(=O)COC(F)(F)F [Compound 538, N-((S)-4,4-dimethyl-1-oxo-1-(((S)-3-oxo-1-((S)-2-oxopyrrolidin-3-yl)-4-(trifluoromethoxy)butan-2-yl)amino)pentan-2-yl)-2-(trifluoromethyl)-thiazole-5-carboxamide]		< 0.05	
O=C1NCC[C@H]1C[C@H](NC(=O)[C@@H]1CC2(CC2)CN1C(=O)C1CCCC1)C(=O)COC(F)(F)F [Compound 723, (S)-5-(cyclopentanecarbonyl)-N-((S)-3-oxo-1-((S)-2-oxopyrrolidin-3-yl)-4-(trifluoromethoxy)butan-2-yl)-5-azaspiro[2.4]heptane-6-carboxamide]		0.05 to 0.2	
CC(C)(C)C[C@H](NC(=O)C(=O)Nc1ccccc1C(C)(C)C)C(=O)N[C@@H](C[C@@H]1CCNC1=O)C(=O)COC(F)(F)F [Compound 173, N1-(2-(tert-butyl)phenyl)-N2-((S)-4,4-dimethyl-1-oxo-1-(((S)-3-oxo-1-((S)-2-oxopyrrolidin-3-yl)-4-(trifluoromethoxy)butan-2-yl)amino)pentan-2-yl)oxalamide]	< 0.05		
CC1(NC(=O)C(=O)N2CC3(CC3)C[C@H]2C(=O)N[C@@H](C[C@@H]2CCNC2=O)C(=O)COC(F)(F)F)CC1 [Compound 571, (S)-5-(2-((l-methylcyclopropyl)-amino)-2-oxoacetyl)-N-((S)-3-oxo-1-((S)-2-oxopyrrolidin-3-yl)-4-(trifluoromethoxy)butan-2-yl)-5-azaspiro[2.4]-heptane-6-carboxamide]		0.05 to 0.2	
